# Columns and labels:
# Assay type in all cases: physicochemical
# [1] = Dilution of 15 mg/mL ethanol/tartrate solution with aqueous diluents; conditions: 15 mg/mL in 75% ethanol/10 mM tartrate buffer diluted with 0.9% sodium chloride injection or 5% dextrose injection
# [2] = Stability in solution containing ethanol and POE castor oil at 50° C.
# From the text: However, as shown below in Table IV, drug degradation occurs in a solution containing ethanol and POE castor oil due to peroxide impurities present in POE castor oil. […] As shown below, the stability of the solution containing POE castor oil was much lower than the injection solution without the co-solvent.
# [3] = Effect of pH on stability, 75% v/v ethanol:0.01M tartrate buffer; conditions: 18 days at 50° C.
# Protocol: (§1) The effect of pH on the drug substance stability was also studied. The buffer pH providing maximum stability was determined by comparing the stability of prototype formulations of the drug substance. […] Relative area percents of drug peaks were evaluated following 2 days storage at 85° C. […] Subsequent experiments evaluated stability (1 mg drug/mL) in 75% v/v ethanol:0.01M tartrate buffer. Three mL aliquots of samples were dispensed into 5 cc Type I glass vials and closed with West 4405/50 20 mm stoppers. Percent drug substance remaining, impurities and degradants were evaluated following 18 days storage at 50° C. and compared to initial values.
# [4] = Solubility in solutions of dehydrated alcohol and POE castor oil; conditions: Dehydrated Alcohol 7.50% v/v, POE Castor Oil 4% v/v
# Protocol: However, this solution cannot be injected directly into patients as the non-aqueous components exceed 20%, thus potentially causing irritation at the injection site. […] It has been shown that the precipitation can be avoided by inclusion of a co-solvent such as polyoxyethylated (POE) castor oil in the formulation. Subsequently, solubility of the drug substance was determined in solutions containing various amounts of dehydrated alcohol and POE castor oil. Approximately 20 mg of drug was added to 3 mL aliquots of the solutions shown below in Table III. Samples were stirred for 16 hours, filtered trough 0.45 micron nylon syringe filters and analyzed by HPLC for drug concentration.
# [5] = Effect of pH on stability, 16.7% v/v ethanol:0.1M citrate buffers; conditions: 0.2 mg drug/mL, 2 days at 85° C.
# Protocol: as §1
# [6] = Stability of antioxidant formulation at 25° C. for 4 months; conditions: for Appearance / Potency / pH: formulation with 0.1% each of three antioxidants
# Protocol: A formulation containing 1.5 mg/mL of Compound 1a, 0.075 mL/mL of ethanol, 0.04 mL/mL of POE castor oil in a tartrate buffer and containing 0.1% each of sodium formaldehyde sulfoxylate, L-cysteine HCl and ascorbic acid was prepared. Samples were placed on stability at 25° C. for 4 months. […] Additionally, there were no changes in potency or total oxidative degradants for the samples.
# [7] = Intrinsic aqueous solubility; conditions: desirable physiological pH range
# From the text: Therefore, it was necessary to formulate the compound in such a way to get the desired solubility at a physiological pH and maintain stability prior to administration.
# [8] = during 4 months of storage at 25° C.
smiles,measurement,setting,value
"CSCO[C@H]1C[C@H]2OC[C@@]2(OC(C)=O)[C@H]2[C@H](OC(=O)c3ccccc3)[C@]3(O)C[C@H](OC(=O)[C@H](O)[C@@H](NC(=O)c4ccccc4)c4ccccc4)C(C)=C([C@@H](OC(C)=O)C(=O)[C@]12C)C3(C)C [Compound Ia, 7-O-methylthiomethylpaclitaxel]",effect of aqueous dilution,[1],drug precipitation
same,Total Impurities,[2]; 6 days @ 50° C.,10.9 area %
same,Total Impurities,[2]; 16 days @ 50° C.,16.5 area %
same,Total Impurities,[2]; Initial,2.1 area %
same,apparent pH of most stable solution,[3],5.4
same,tartrate buffer pH of most stable solution,[3],3.8
same,Solubility,[4],2380 µg/mL
same,buffer pH of best stability,[5],4.5
same,changes in appearance or pH,[6]; [8],no significant changes
same,changes in potency or total oxidative degradants,[6]; [8],no changes
same,Appearance,[6]; 2 Month at 25° C.,"Clear, colorless"
same,Potency,[6]; 2 Month at 25° C.,1460 µg/mL
same,pH,[6]; 2 Month at 25° C.,3.56
same,Appearance,[6]; 4 Month at 25° C.,"Clear, colorless"
same,Potency,[6]; 4 Month at 25° C.,1480 µg/mL
same,pH,[6]; 4 Month at 25° C.,3.57
same,Appearance,[6]; Initial,"Clear, colorless"
same,Potency,[6]; Initial,1440 µg/mL
same,pH,[6]; Initial,3.71
same,ionization,[7],does not ionize
